Structures can show the parent of a compound that is named as a salt.
How the values were obtained:
[1] = tested on: durch Angiotensin I (AI) hervorgerufenen Blutdrucksteigerung; experiment: Inhibition of the blood pressure rise caused by angiotensin I in anaesthetised normotensive rats; type: in vivo, Ratte; settings: rat, mean value 30 min after administration
Excerpt: Die neuen Verbindungen zeigen auch eine Hemmwirkung auf das Ansprechen des Blutdrucks von normotensiven Ratten auf Angiotensin I. Das Enzym Renin verursacht unter normalen Verhältnissen eine spezifische Hydrolyse des zirkulierenden Renin-Substrat-Proteins. Diese Hydrolyse ergibt das Angiotensin I, welches durch die Einwirkung des genannten Enzyms, welches das Angiotensin umwandelt, in das stark gefässverengernde Angiotensin II weiter hydrolysiert wird. Durch Hemmung des genannten Enzyms wird die Entstehung des Angiotensins II aus I verhindert. Diese Hemmung dämpft daher jedes Ansprechen des Blutdrucks nach einer Angiotenin-I-Attacke.
Der entsprechende in vivo Test wird mit männlichen, normotensiven Ratten, welche mit 100-120 mg/kg intraperitoneal verabreichtem Natriumsalz des Aethyl-(l-methylpropyl)-malonylthioharnstoffs narkotisiert sind, vorgenommen. Eine femurale Arterie und eine Wadenvene werden mit je einer Hohlnadel für die direkte Messung des Blutdrucks und für die intravenöse Verabreichung des Angiotensins I und der erfindungsgemässen Verbindungen, versehen. Nach der Stabilisierung des basalen Blutdrucks, wird die Druckänderung nach drei, in 5-minutigen Intervallen durchgeführten, Reizungen mit 0,33 µg/kg Angiotensin I i.v., bestimmt. Druckänderungen werden auch 5, 10, 15, 30 und 60 Minuten nach entweder intravenöser oder peroraler Verabreichung (mit Magensonde) der zu prüfenden Verbindungen bestimmt. Die letztgenannten Druckänderungen werden mit den Anfangswerten verglichen. Jede festgestellte Abnahme vom Ansprechen des Blutdrucks ist ein Hinweis auf die Hemmung des Enzyms, welches das Angiotensin umwandelt. Diese Abnahme kann bis zu 80%, nach Dosen von 10 mg/kg i.v. oder 50 mg/kg p.o., betragen und bis 60 Minuten lang andauern.
In der in vivo Prüfungsmethode wird zuerst durch Verabreichung des Angiotensins 1 (AI) an das Versuchstier eine Blutdrucksteigerung hervorgerufen. Es wird dann die Hemmung der einzelnen Verbindungen auf diese Blutdrucksteigerung gemessen.
II. Methode der Hemmung der durch Angiotensin I (AI) hervorgerufenen Blutdrucksteigerung, durch intravenöse Verabreichung der Testverbindung (Z AI-Hemmung) In diesen Untersuchungen wird wie oben beschrieben, je ein Katheter in eine femurale Arterie und in eine Wadenvene der Ratte eingeführt.
Der arterielle Druck wurde von dem Arterienkatheter aus registriert, während man Angiotensin I (AI) und die einzelnen Testverbindungen durch den Venenkatheter injiziert hatte. Die Hemmung der durch Angiotensin I verursachten Blutdrucksteigerung ist in der Tabelle als Durchschnittswert 30 Minuten nach der Verabreichung von ausgewählten Dosen der jeweiligen Verbindung wiedergegeben. Dabei werden solche Dosierungen ausgewählt, so dass u.a. der ID50 (i.v.)-Wert ermittelt werden kann.

[2] = biological target: T1, angiotensin converting enzyme = ACE (Oryctolagus cuniculus, UniProt P12822); experiment: In vitro ACE inhibition (ACEI), release of histidyl-leucine from hippuryl-histidyl-leucine, rabbit lung tissue preparation; type: biochemical, Kaninchen; settings: incubation 30 min at 37°
T1 construct: Dieses Enzym wird aus Lungen von erwachsenen männlichen Kaninchen in Tris-Puffer; from tissue; host or cells: lung of adult male rabbits
T1 sequence (P12822 34-1310): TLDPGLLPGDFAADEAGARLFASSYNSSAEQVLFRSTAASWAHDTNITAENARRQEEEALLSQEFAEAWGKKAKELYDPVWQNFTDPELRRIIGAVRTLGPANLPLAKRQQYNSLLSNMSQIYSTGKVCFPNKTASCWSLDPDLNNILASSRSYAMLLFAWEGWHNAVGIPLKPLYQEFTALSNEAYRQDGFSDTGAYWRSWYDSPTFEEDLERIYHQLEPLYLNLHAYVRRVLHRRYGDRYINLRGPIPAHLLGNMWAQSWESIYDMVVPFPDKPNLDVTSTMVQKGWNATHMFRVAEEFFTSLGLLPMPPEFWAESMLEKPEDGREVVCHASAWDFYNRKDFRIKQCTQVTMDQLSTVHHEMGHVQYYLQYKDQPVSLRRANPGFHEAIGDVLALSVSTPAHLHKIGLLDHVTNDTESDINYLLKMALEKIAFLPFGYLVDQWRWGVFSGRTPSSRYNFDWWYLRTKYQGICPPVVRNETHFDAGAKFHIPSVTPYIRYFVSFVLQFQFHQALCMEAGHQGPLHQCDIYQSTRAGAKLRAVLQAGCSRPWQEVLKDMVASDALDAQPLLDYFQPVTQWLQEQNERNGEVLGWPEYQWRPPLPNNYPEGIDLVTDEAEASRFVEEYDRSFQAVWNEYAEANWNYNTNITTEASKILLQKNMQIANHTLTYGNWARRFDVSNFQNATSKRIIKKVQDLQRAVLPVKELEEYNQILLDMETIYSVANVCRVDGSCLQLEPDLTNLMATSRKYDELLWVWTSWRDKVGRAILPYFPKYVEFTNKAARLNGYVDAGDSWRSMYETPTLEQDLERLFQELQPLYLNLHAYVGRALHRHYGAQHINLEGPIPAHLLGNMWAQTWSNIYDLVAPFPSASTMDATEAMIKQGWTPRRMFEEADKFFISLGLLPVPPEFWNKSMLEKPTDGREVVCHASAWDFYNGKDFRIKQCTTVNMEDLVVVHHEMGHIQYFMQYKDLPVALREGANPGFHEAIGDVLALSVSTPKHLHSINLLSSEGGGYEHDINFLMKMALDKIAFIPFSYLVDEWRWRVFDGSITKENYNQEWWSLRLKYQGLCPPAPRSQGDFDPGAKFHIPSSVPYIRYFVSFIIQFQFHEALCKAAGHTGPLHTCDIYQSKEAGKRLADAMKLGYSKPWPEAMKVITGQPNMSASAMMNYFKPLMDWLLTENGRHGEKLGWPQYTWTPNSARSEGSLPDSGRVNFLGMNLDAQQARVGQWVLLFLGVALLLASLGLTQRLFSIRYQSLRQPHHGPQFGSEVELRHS
Excerpt: Die in vitro Hemmung des Enzyms, welches das Angiotensin umwandelt, kann bei den Verbindungen dieser Erfindung analog zu Biochim. Biophys. Acta 293, 451 (1973) nachgewiesen werden. Gemäss dieser Methode werden die genannten Verbindungen in ungefähr 1 mMol Konzentrationen in Phosphatpuffer, welcher von aussen mit Eis gekühlt wird, aufgelöst. Zu diesen Lösungen gibt man zuerst verschiedene µl-Mengen von 1 mMolarem Histidyl-leucin in Phosphatpuffer und dann 100 pl von 5mMolarem Hippuryl-histidyl-leucin in Phosphatpuffer und 50 pl des Angiotensin-umwandelnden Enzyms. Dieses Enzym wird aus Lungen von erwachsenen männlichen Kaninchen in Tris-Puffer, der Kalium-und Magnesiumchlorid und auch Rohrzucker enthält, frisch hergestellt. Die genannten Lösungen werden 30 Minuten bei 37° inkubiert und die weitere Reaktion wird durch Hinzufügen von 0,75 ml einer 0,6-normalen wässerigen Natriumhydroxidlösung gestoppt. Dann gibt man bei Zimmertemperatur 100 µl o-Phthalaldehyd und nach 10 Minuten 100 µl 6-normaler Chlorwasserstoffsäure dazu. Die Proben werden in einem Spektroghotometer bei 360 nm mit Wasser verglichen und ihre optische Dichte wird bestimmt. Diese Werte werden durch einen Konversionsfaktor einer Standard-Kurve angepasst, wobei man die während der genannten Inkubation von 30 Minuten gebildete Histidyl-leucin-Menge in Nanomolen erhält. Die Ergebnisse werden, um den IC50-Wert zu bestimmen, gegenüber den Wirkstoff-Konzentrationen graphisch als Kurve dargestellt. Dieser Wert bedeutet diejenige Wirkstoff-Konzentration, welche die Hälfte der Aktivität einer Kontrollprobe, die keinen Wirkstoff enthält, ergibt. Die genannten repräsentativen Verbindungen der vorliegenden Erfindung sind auch in diesem in vitro Testsystem, bis zu dem IC50-Wert von 39 nM und darunter, sehr wirksam.
Die Prüfung der Wirkung von Verbindungen ist gemäss den Methoden für die Auswertung der Hemmung des Enzyms, welches das Angiotensin umwandelt [angiotensin converting enzyme = ACE] durchgeführt worden. […]

Compound	% AI Hemmungen ([1]; i.v. Dosis 0.1 mg/kg)	IC50 [2]	% AI Hemmungen ([1]; i.v. Dosis 0.03 mg/kg)	% AI Hemmungen ([1]; i.v. Dosis 0.06 mg/kg)	% AI Hemmungen ([1]; i.v. Dosis 1.0 mg/kg)
C[C@H](NC(CCc1ccccc1)C(=O)O)C(=O)N1c2ccccc2C[C@H]1C(=O)O (stereo partly drawn) [Beispiel 1, 1-[N-(1-Carboxy-3-phenylpropyl)-S-alanyl]-indolin-2S-carbonsäure]	80%	6 nM			
CCOC(=O)[C@H](CCc1ccccc1)N[C@@H](C)C(=O)N1c2ccccc2C[C@H]1C(=O)O [Beispiel 4, 1-[N-(lS-Carboäthoxy-3-phenyl-propyl)-S-alanyl]-indolin-2S-carbonsäurehydrochlorid]	95%		33%	80%	
CCOC(=O)[C@@H](CCc1ccccc1)N[C@@H](C)C(=O)N1c2ccccc2C[C@H]1C(=O)O [Beispiel 6, 1-[N-(lR-Carboäthoxy-3-phenyl-propyl)-S-alanyl]-indolin-2S-carbonsäure-hydrochlorid]	35%	8000 nM			
C[C@H](NC(Cc1ccccc1)C(=O)O)C(=O)N1c2ccccc2C[C@H]1C(=O)O (stereo partly drawn) [Beispiel 7, 1-[N-(1-Carboxy-2-phenyl-äthyl)-S-alanyl]-indolin-2S-carbonsäure]		30 nM			80%

Reference: patent publication EP0051301A1, “1-Carboxy-azaalkyl-indolin-2-carboxylic acids, process for preparing them, pharmaceutical compositions containing them and their therapeutical use” (CIBA-GEIGY AG, priority 1980, dated 1982)
